One test relates to H460^C GPX4^KO cells. Kind of test: cell-based assay of FSP1 activity, cell death (SYTOX Green/mCherry lethal fraction). On the procedure: (§1) For cell-based screen, cells were seeded in triplicate at a density of 500-750 cells per 50 μL per well in black 384-well plates (NUNC) and (Corning) 24 hr before start of imaging. After 24 hr, an additional 50 μL of drug infused medium containing 30 nM SYTOX Green Dead Cell Stain was carefully placed into the wells on top of existing medium. The plates were immediately transferred to an IncuCyte S3 imaging system (Essen Bioscience) enclosed in an incubator set to 37° C. and 5% CO2. One image per well were captured in the phase, green, and red channels every 1.5 or 3 hr over a 24 hr period, and the ratio of SYTOX Green-positive objects (dead cells) to SYTOX Green-positive plus Sg-SAFE mCherry-positive objects (total cells) was quantified using S3 image analysis software (Essen Bioscience). For each treatment condition, the SYTOX-to-′SYTOX+mCherry′-object ratio was plotted against the 24 hr imaging interval, the Area Under the Curve (AUC) was calculated and the average AUC was plotted using Prism (GraphPad). To calculate the half-maximal effective concentration (EC50) values, the AUC curve was fit to a variable slope function comparing response to drug concentration.
In addition to the in vitro activity assay, an orthogonal cell-based assay of FSP1 activity was also developed. […]

Test [1] deals with T1, His tagged FSP1 (WT) protein (Homo sapiens, UniProt Q9BRQ8).
T1 construct: made in house; host or cells: E. coli LOBSTR-BL21 (DE3)
T1 sequence (Q9BRQ8 1-373): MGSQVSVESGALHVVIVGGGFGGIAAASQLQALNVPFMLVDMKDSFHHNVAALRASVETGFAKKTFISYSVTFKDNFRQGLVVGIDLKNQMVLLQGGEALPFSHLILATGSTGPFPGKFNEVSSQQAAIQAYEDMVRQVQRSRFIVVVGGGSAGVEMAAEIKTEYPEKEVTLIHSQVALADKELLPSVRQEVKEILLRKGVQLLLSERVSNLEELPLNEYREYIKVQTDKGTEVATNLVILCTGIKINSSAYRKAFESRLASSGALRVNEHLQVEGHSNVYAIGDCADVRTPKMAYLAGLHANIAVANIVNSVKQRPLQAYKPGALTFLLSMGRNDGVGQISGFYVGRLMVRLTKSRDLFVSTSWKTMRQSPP
Kind of test: in vitro FSP1 activity assay (NADH oxidation during CoQ1 reduction, 355 nm absorbance). The format is biochemical. The settings on record: inhibition of FSP1 Coenzyme Q1 oxidoreductase activity in vitro. The protocol:
For small molecule drug screen, 0.5 μL of compounds were stamped into 384 well NBS plates (Corning) in dose response diluted 2-fold with a high of 2 mM. 60 mL of purified His tagged FSP1 (WT) protein at 50 nM was prepared and 12.5 μL of this protein solution was aliquoted into 384 well NBS-plates (Corning) containing compound and allowed to incubate for 30 min at room temperature. After 30 min incubation 12.5 μL of reaction buffer (1 mM NADH, 800 µM CoQ1) was added into the 384 well NBS-plates containing protein and compounds for a final concentration of 25 nM His tagged FSP1 (WT) protein, 500 µM NADH (Sigma-Aldrich) and 400 µM CoQ1 (Sigma-Aldrich). Each well contained a 25 μL mixture and 40 µM compound in the primary screen. […] Measurements were taken at 355 nm with a EnVision 2104 multilabel plate reader (PerkinElmer). […] Compounds with confirmed data that have normalized absorbance values of less than 0.164 were chosen for dose response. […]
To measure NADH oxidation kinetics, 25 nM recombinant FSP1 was combined with 500 µM NADH and C400 µM Coenzyme Q1 in a total volume of 100 μl PBS. The change in absorbance at 355 nm, corresponding to NADH oxidation, was determined over the course of 4 h. All measurements were taken using a SpectraMax i3 Multi-Mode Platform plate reader (Molecular Devices). […]

The next test relates to H460^C Cas9 cells. In words: cell-based assay, cell death in control cells. The protocol: as §1, with “concentration. […]” for “concentration.”
Employing this assay, the amount of cell death induced by 168 FSP1 inhibitors in the H460^C Cas9 and H460^C GPX4^KO cells was assessed. […]

Entries after “also recorded” stand apart in the source; their conditions may differ.

A word on the IC50: it is the point on the concentration scale where inhibition reaches its midpoint. Turning to `Cc1ccc(-c2c(C#N)c(N)n3c(nc4ccccc43)c2C#N)cc1` [iFSP1], in the test on H460^C GPX4^KO cells, the “cell death in H460^C GPX4^KO cells” value is reported as “sufficient to trigger ferroptosis; also recorded: selectively triggered cell death”. The compound further displayed an IC50 in test [1] of 4.01 µM. For the same compound, in the test with H460^C Cas9 cells, the “cell death in H460^C Cas9 cells” value is recorded as “but not in the H460^C Cas9 cells”.

These data come from patent US20250161297A1, “COMPOSITIONS AND METHODS FOR INHIBITING FSP1” (THE REGENTS OF THE UNIVERSITY OF CALIFORNIA, priority 2022, published 2025).
